Laboratory results taken from patent US20110196000A1, “Use of succinate dehydrogenase (SDH) inhibitors in the treatment of plant species from the family of the true grasses” (Bayer CropScience AG, priority 2010, published 2011).

Experiments:
Format in all cases: in vivo
wheat variety Ritmo [1] = experiment: Plot trial in Germany: green leaf area by visual scoring; conditions: sprays at BBCH 39 and 59
Protocol: In Germany a plot trial was set up with the wheat variety Ritmo in order to investigate the effect of bixafen on the physiology, morphology and abiotic stress tolerance of wheat plants under realistic agricultural conditions. The products under test were applied to the plants, in the form of sequential spray sequences (BBCH 39 and 59). The spray volume was 400 l of water per hectare. In each trial component, 5 repetitions were carried out. [table] The duration of green coloration of the leaf area was captured by regular visual scoring of the fraction of green leaf area.

wheat variety Ritmo [2] = experiment: Plot trial: chlorophyll content of leaves (pigment extraction method of Ziegler and Ehle)
wheat variety Ritmo [3] = experiment: Plot trial: yield components; conditions: sprays at BBCH 39 and 59
[4] = system: infection-free wheat plants of the cultivar Passat; experiment: Glasshouse trial: green leaf area by visual scoring; conditions: glasshouse
Protocol: (§1) In a glasshouse trial under controlled conditions, the effect of bixafen was investigated on the physiology, morphology and abiotic stress tolerance of infection-free wheat plants of the cultivar […] plants were grown in 10-litre containers over a period of 4 months. The substrate used was standard earth type ED 73 (Fröndenberg, Germany)+C-Horizont+Sand (4:2:1). The supply of nutrient to the plants took place by feeding with a 0.2% strength Flory 2 liquid fertilizer solution (from Euflor, Munich) once every two weeks. The plants were supplied with water as required. In each component of the trial, 10 repetitions were carried out. To prevent infestation with powdery mildew, Proquinazid (Talius® was applied once. The incidence of aphids and spider mites was avoided by treatments with Karate®, Bulldock® and Sumicidin®. The products under test were applied to the plants, in the form of sequential spray sequences (BBCH 39 and 59). The spray volume was 300 l of water per hectare. [table] The duration of the green coloration of the leaf area was captured on the basis of regular visual scoring of the fraction of the green leaf area.

[5] = system: infection-free wheat plants of the cultivar Passat; experiment: Glasshouse trial: yield components; conditions: glasshouse, sprays at BBCH 39 and 59
[6] = system: infection-free wheat plants of the cultivar Passat; experiment: Glasshouse trial: size of the flag leaf; conditions: at BBCH 83-85
Protocol: as §1, with “Morphological parameters measured, additionally, were the length and width, i.e. the size” for “The duration”, “flag leaf. This was greatest with” for “green coloration of”, “succinate dehydrogenase (SDH) inhibitor bixafen, in comparison to” for “leaf area was captured on”, “other comparison fungicides.” for “basis of regular visual scoring of the fraction of the green leaf area.”

[7] = system: infection-free wheat plants of the cultivar Passat; experiment: Glasshouse trial: time of heading (ear emergence); set-up: time of heading of wheat (ears emerged): unit not given here
Protocol: (§2) In a glasshouse trial under controlled conditions, the effect of bixafen was investigated on the physiology, morphology and abiotic stress tolerance of infection-free wheat plants of the cultivar […] plants were grown in 10-litre containers over a period of 4 months. The substrate used was standard earth type ED 73 (Fröndenberg, Germany)+C-Horizont+Sand (4:2:1). The supply of nutrient to the plants took place by feeding with a 0.2% strength Flory 2 liquid fertilizer solution (from Euflor, Munich) once every two weeks. The plants were supplied with water as required. In each component of the trial, 10 repetitions were carried out.

[8] = system: infection-free wheat plants of the cultivar Passat; experiment: Glasshouse trial: temperature of ears and leaves as measure of transpiration activity
Protocol: as §2

[9] = system: infection-free wheat plants of the cultivar Passat; experiment: Glasshouse trial: gas exchange activity of wheat ears; conditions: development stage BBCH 75
Protocol: as §2

[10] = 7 days after second fungicide application
[11] = 14 days after second fungicide application
[12] = 21 days after second fungicide application
[13] = 28 days after second fungicide application
[14] = 35 days after second fungicide application
[15] = 42 days after second fungicide application
[16] = 68 days after second fungicide application (so in the source)
[17] = 75 days after second fungicide application (so in the source)
[18] = 82 days after second fungicide application (so in the source)
[19] = 89 days after second fungicide application (so in the source)
[20] = 96 days after second fungicide application (so in the source)
[21] = 103 days after second fungicide application (so in the source)
[22] = 110 days after second fungicide application (so in the source)
[23] = 117 days after second fungicide application (so in the source)

Compound: CCCN(CC)CC1COC2(CCC(C(C)(C)C)CC2)O1 (centres unmarked) [Spiroxamine]
- green leaf area of the flag leaf (wheat variety Ritmo [1]; [10]): 98.3 % leaf area
- green leaf area of the second-from-top leaf (F-1) (wheat variety Ritmo [1]; [10]): 97.4 % leaf area
- green leaf area of the third-from-top leaf (F-2) (wheat variety Ritmo [1]; [10]): 94.1 % leaf area
- green leaf area of the flag leaf (wheat variety Ritmo [1]; [11]): 97.9 % leaf area
- green leaf area of the second-from-top leaf (F-1) (wheat variety Ritmo [1]; [11]): 95.8 % leaf area
- green leaf area of the third-from-top leaf (F-2) (wheat variety Ritmo [1]; [11]): 93.3 % leaf area
- green leaf area of the flag leaf (wheat variety Ritmo [1]; [12]): 92.7 % leaf area
- green leaf area of the second-from-top leaf (F-1) (wheat variety Ritmo [1]; [12]): 85.8 % leaf area
- green leaf area of the third-from-top leaf (F-2) (wheat variety Ritmo [1]; [12]): 78.1 % leaf area
- green leaf area of the flag leaf (wheat variety Ritmo [1]; [13]): 82.3 % leaf area
- green leaf area of the second-from-top leaf (F-1) (wheat variety Ritmo [1]; [13]): 69.7 % leaf area
- green leaf area of the third-from-top leaf (F-2) (wheat variety Ritmo [1]; [13]): 51.7 % leaf area
- green leaf area of the flag leaf (wheat variety Ritmo [1]; [14]): 48.6 % leaf area
- green leaf area of the second-from-top leaf (F-1) (wheat variety Ritmo [1]; [14]): 31.7 % leaf area
- green leaf area of the third-from-top leaf (F-2) (wheat variety Ritmo [1]; [14]): 15.7 % leaf area
- green leaf area of the flag leaf (wheat variety Ritmo [1]; [15]): 5.5 % leaf area
- green leaf area of the second-from-top leaf (F-1) (wheat variety Ritmo [1]; [15]): 0 % leaf area
- green leaf area of the third-from-top leaf (F-2) (wheat variety Ritmo [1]; [15]): 0 % leaf area
- green leaf area of the second-from-top leaf (F-1) (wheat variety Ritmo [1]; 49 days after second fungicide application): 0 % leaf area
- Chlorophyll content (wheat variety Ritmo [2]; BBCH 75 (mature milk), leaf F): 1471 µg/g
- Chlorophyll content (wheat variety Ritmo [2]; BBCH 75 (mature milk), leaf F-1): 1245 µg/g
- Chlorophyll content (wheat variety Ritmo [2]; BBCH 75 (mature milk), leaf F-2): 707 µg/g
- Chlorophyll content (wheat variety Ritmo [2]; BBCH 85 (mature dough), leaf F): 114 µg/g
- Chlorophyll content (wheat variety Ritmo [2]; BBCH 85 (mature dough), leaf F-1): 119 µg/g
- Chlorophyll content (wheat variety Ritmo [2]; BBCH 85 (mature dough), leaf F-2): 147 µg/g
- Ears/m^2 (wheat variety Ritmo [3]): 409
- Harvest Index (wheat variety Ritmo [3]): 59.3
- Straw (wheat variety Ritmo [3]): 514 g m^−2
- TKM (thousand-kernel mass) (wheat variety Ritmo [3]): 44.2 g
- Yield (wheat variety Ritmo [3]): 7.7 t ha^−1
- green leaf area of the flag leaf (F) [4, 16]: 100 % leaf area
- green leaf area of the second-from-top leaf (F-1) [4, 16]: 100 % leaf area
- green leaf area of the third-from-top leaf (F-2) [4, 16]: 100 % leaf area
- green leaf area of the flag leaf (F) [4, 17]: 100 % leaf area
- green leaf area of the second-from-top leaf (F-1) [4, 17]: 100 % leaf area
- green leaf area of the third-from-top leaf (F-2) [4, 17]: 95 % leaf area
- green leaf area of the flag leaf (F) [4, 18]: 100 % leaf area
- green leaf area of the second-from-top leaf (F-1) [4, 18]: 90 % leaf area
- green leaf area of the third-from-top leaf (F-2) [4, 18]: 73 % leaf area
- green leaf area of the flag leaf (F) [4, 19]: 92 % leaf area
- green leaf area of the second-from-top leaf (F-1) [4, 19]: 77 % leaf area
- green leaf area of the third-from-top leaf (F-2) [4, 19]: 45 % leaf area
- green leaf area of the flag leaf (F) [4, 20]: 80 % leaf area
- green leaf area of the second-from-top leaf (F-1) [4, 20]: 50 % leaf area
- green leaf area of the third-from-top leaf (F-2) [4, 20]: 19 % leaf area
- green leaf area of the flag leaf (F) [4, 21]: 55 % leaf area
- green leaf area of the second-from-top leaf (F-1) [4, 21]: 23 % leaf area
- green leaf area of the third-from-top leaf (F-2) [4, 21]: 7 % leaf area
- green leaf area of the flag leaf (F) [4, 22]: 23 % leaf area
- green leaf area of the second-from-top leaf (F-1) [4, 22]: 6 % leaf area
- green leaf area of the third-from-top leaf (F-2) [4, 22]: 0 % leaf area
- green leaf area of the flag leaf (F) [4, 23]: 3 % leaf area
- green leaf area of the second-from-top leaf (F-1) [4, 23]: 0 % leaf area
- green leaf area of the third-from-top leaf (F-2) [4, 23]: 0 % leaf area
- Ears/pot [5]: 40.9
- Harvest Index [5]: 36.3%
- Kernels/ear [5]: 23.2
- Straw [5]: 58.6 g/pot
- TKM (thousand-kernel mass) [5]: 35.5 g
- Yield [5]: 33.4 g/pot
- Length of the flag leaf [6]: 26.1 cm
- Width of the flag leaf [6]: 1.2 cm
- Area of the flag leaf ([6]; calculated using the formula A = 0.67 × length × width): 20.98 cm^2
- Area [rel.] of the flag leaf ([6]; untreated = 100): 96 rel.
- time of heading of wheat (ears emerged) ([7]; 45 days after sowing): 10.8
- time of heading of wheat (ears emerged) ([7]; 50 days after sowing): 34.1
- time of heading of wheat (ears emerged) ([7]; 55 days after sowing): 46.4
- time of heading of wheat (ears emerged) ([7]; 60 days after sowing): 57.5
- time of heading of wheat (ears emerged) ([7]; 65 days after sowing): 75.5
- time of heading of wheat (ears emerged) ([7]; 70 days after sowing): 83.4
- time of heading of wheat (ears emerged) ([7]; 75 days after sowing): 91.1
- time of heading of wheat (ears emerged) ([7]; 80 days after sowing): 99.1
- time of heading of wheat (ears emerged) ([7]; 85 days after sowing): 100
- Temperature (as a measure of the transpiration activity) ([8]; BBCH 75, ear): 23.2 °C
- Temperature (as a measure of the transpiration activity) ([8]; BBCH 75, leaf): 22.4 °C
- Temperature (as a measure of the transpiration activity) ([8]; BBCH 80, ear): 20.2 °C
- Temperature (as a measure of the transpiration activity) ([8]; BBCH 80, leaf): 16.4 °C
- Temperature (as a measure of the transpiration activity) ([8]; BBCH 85, ear): 25.1 °C
- Temperature (as a measure of the transpiration activity) ([8]; BBCH 85, leaf): 23.7 °C
- Temperature (as a measure of the transpiration activity) ([8]; BBCH 90, ear): 24.2 °C
- Temperature (as a measure of the transpiration activity) ([8]; BBCH 90, lear (so in the source)): 23.2 °C
- Photosynthesis (gas exchange activity of wheat ears) [9]: −2.36 a CO2 per ear
- Respiration (gas exchange activity of wheat ears) [9]: 2.82 b CO2 per ear
